# Experimental data taken from US10660911B2, “Proton-motive force stimulation to potentiate aminoglycoside antibiotics against persistent bacteria” (TRUSTEES OF BOSTON UNIVERSITY, priority 2011, dated 2020).
# “Also recorded” adds a separate entry of the source.
# Experiments:
# [1] = test system: stationary-phase E. coli cells; type: cell-based, Escherichia coli
# Procedure: Given that aminoglycoside uptake is energy-dependent^16, we investigated whether the metabolic stimuli screened here could increase aminoglycoside uptake. We measured uptake by fluorescently labelling gentamicin with Texas red and analyzing cells by fluorescence-activated cell sorting (FACS). Cells were pre-incubated with metabolites for 30 min before a 5-min treatment with gentamicin-Texas red (FIG. 1D and FIG. 14).
# Gentamicin-Texas red was made as previously described^27. At 4° C., 1 mg of Texas red (Invitrogen) was dissolved in 50 μl of high-quality anhydrous N,N-dimethylformamide. The dissolved Texas red was added slowly to 2.3 ml of 10 mg ml^−1 gentamicin solution in 100 mM K2CO3 at 4° C.
# Uptake of gentamicin-Texas red induced by carbon sources in stationary-phase cells was determined by adding concentrated carbon sources (see section on media and growth conditions for concentrations) to stationary-phase cultures and incubating them for 30 min at 37° C., 300 r.p.m. and 80% humidity. Concentrated gentamicin-Texas red was then added to a final concentration of 10 μg ml^−1 and samples were incubated for 5 min. 100 μl of each sample was then washed with 1 ml of PBS and re-suspended in 1 ml of PBS. […] Samples were analysed on a BD FACS Aria II flow cytometer with the following settings: mCherry voltage, 650 V; FSC threshold, 1,000; recorded events, 100,000; gated-out mCherry events. <30.
# E. coli persisters = test: E. coli persister assay (survival by c.f.u. per ml); type: cell-based, Escherichia coli (K12 EMG2); details: for killing of E. coli persisters by antibiotic without metabolite: antibiotic alone, no carbon source; for killing of E. coli persisters by antibiotic in the presence of mannitol: antibiotic plus 10 mM mannitol; for potentiation of gentamicin against E. coli persisters by metabolite / reduction of persister viability (killing by gentamicin induced by metabolite): metabolite plus 10 μg/mL gentamicin; for potentiation of gentamicin against E. coli persisters by metabolite / reduction of persister viability (killing by gentamicin induced by metabolite) / potentiation of gentamicin against ΔndhΔnuoI strain persisters: 2 h; for reduction of persister viability (killing by gentamicin induced by metabolite): M9 minimal media; for potentiation of gentamicin against ΔndhΔnuoI strain persisters: ΔndhΔnuoI E. coli, gentamicin plus metabolite
# Procedure: (§1) For E. coli (K12 EMG2 strain) persister assays, as described herein, samples were grown to stationary phase in Luria-bertani (LB) broth. Cultures were then treated for 4 hours with 5 μg/mL ofloxacin. […] Samples were then washed with 10 mL 1× filtered PBS and re-suspended in M9 minimal media. Metabolites (Glucose, mannitol, fructose, and pyruvate) and aminoglycoside antibiotics (10 μg/mL gentamicin, 50 μg/mL streptomycin, and 30 μg/mL kanamycin) were added, and samples were incubated at 37° C., 300 RPM, and 80% humidity. Resuspension of samples in defined minimal media allowed precise and specific testing of the effect of different metabolites on persister viability, without the possible confounding factors that a more complex media would present. For S. aureus persister (ATCC 25923 strain) experiments, cells were grown at 37° C. and 300 RPM in LB broth to an OD600 of 0.3. Cells were then diluted 1:1000 in 25 mL LB and grown for 16 hours at 37° C. and 300 RPM in 250 mL flasks. Cultures were treated with carbon source and antibiotic. Previous work has shown that, approximately all, stationary phase S. aureus cells are persistent.
# At specified time points, 10 μL aliquots of samples were removed, serially diluted, and spot-plated onto LB agar plates to determine colony forming units/mL (CFU/mL). Only dilutions that yielded between 10-100 colonies were counted. Survival was determined by dividing a replicate's CFU/mL at each time point by the initial CFU/mL for the replicate.
# Given the dormancy of bacterial persisters and the known energy requirement for aminoglycoside activity^16, we tested whether metabolic stimulation could potentiate the efficacy of aminoglycosides against bacterial persisters. To test this, we screened metabolites for their ability to potentiate aminoglycosides against E. coli persisters. We selected carbon sources to maximize coverage of glycolysis, the pentose-phosphate pathway (PPP) and the Entner-Doudoroff pathway (EDP) (FIGS. 1A, 1B). Bacterial persisters were isolated (as described under “Methods”), re-suspended in minimal media supplemented with individual metabolites and then treated for 2 hours with the aminoglycoside gentamicin.
# The following concentrations of carbon sources were used in this study: 10 mM glucose, 10 mM mannitol, 10 mM fructose, 20 mM glycerol, 30 mM glycolate, 10 mM galactarate, 20 mM pyruvate, 10 mM gluconate, 12 mM arabinose and 12 mM ribose. 10 mM acetate was used as a supplement and 30 mM acetate was used as a potentiating metabolite in control experiments. Carbon sources were purchased from Sigma or Fisher. In E. coli persister assays, samples were re-suspended in M9 minimal media salts plus a carbon source. In all experiments using CCCP, samples were pre-treated for 5 min with the proton ionophore before antibiotic addition.
# For E. coli persister assays, samples were grown to stationary phase as described above. Cultures were then treated for 4 h with 5 μg ml^−1 ofloxacin in the above-stated growth conditions. […] Samples were then washed with 10 ml of 1× filtered PBS and re-suspended in M9 minimal media. Carbon sources and antibiotics were added and samples were incubated at 37° C. 300 r.p.m. and 80% humidity. Re-suspension of samples in defined minimal media allowed us to test the effects of different carbon sources on persister viability precisely and specifically, without the possible confounding factors that a more complex medium would present. For S. aureus persister experiments, cells were grown at 37° C. and 300 r.p.m. in LB broth to an OD600 of 0.3. Cells were then diluted 1:1,000 in 25 ml LB and grown for 16 h at 37° C. and 300 r.p.m. in 250 ml flasks before treatment with a carbon source and antibiotic. Previous work has shown that almost all stationary-phase S. aureus cells are persistent^25.
# At specified time points, 10-μl aliquots of samples were removed, serially diluted and spot-plated onto LB agar plates to determine colony-forming units per ml (c.f.u. ml^−1). […]
# S. aureus persisters = test: S. aureus persister assay; type: cell-based, Staphylococcus aureus (ATCC 25923)
# Procedure: as §1, with “Previous work has shown that, approximately all, stationary phase S. aureus cells are persistent.” left out
# At specified time points, 10-μl aliquots of samples were removed, serially diluted and spot-plated onto LB agar plates to determine colony-forming units per ml (c.f.u. ml^−1). Only dilutions that yielded 10-100 colonies were counted Survival was determined by dividing the c.f.u. ml^−1 of a sample at each time point by the initial c.f.u. ml^−1 for that sample.
# [2] = test system: uropathogenic E. coli biofilms; test: Mouse chronic urinary tract infection assay; type: in vivo, mice (BALB/c); details: i.v. twice daily for 3 days; gentamicin 1 mg/kg, mannitol 1.5 g/kg
# Procedure: Female Charles River Balb/C mice (weighing 22-26 g) received surgical implantation in the urinary tract of 6 mm PESO catheter tubing that had been incubated in cultures of uropathogenic E. coli for 24 hours to form biofilms. Forty-eight hours after surgery, mice received no treatment or twice-daily, intravenous treatment with gentamicin (1 mg/Kg) or mannitol (1.5 g/Kg) and gentamicin (1 mg/Kg) for three days. Seven to eight mice were included in each group. Twenty-four hours after the last treatment, catheter tubing was extracted to determine biofilm viability and kidneys were removed to determine bacterial load.
# To determine the clinical relevance of metabolic potentiation of aminoglycosides in vivo, we tested the ability of gentamicin in combination with mannitol to treat chronic, biofilm-associated infection in a mouse model. Catheters colonized with uropathogenic E. coli biofilms were implanted in the urinary tracts of mice (FIG. 3D). Two days after surgery, mice received either no treatment or intravenous treatment with gentamicin or gentamicin and mannitol for 3 days, after which the catheters were removed and biofilm viability was determined. Gentamicin alone had no effect, whereas gentamicin in combination with mannitol reduced the viability of the catheter biofilms by nearly 1.5 orders of magnitude (FIG. 3D). […]
compound,measurement,setting,value
"N#CC(C#N)=NNc1cccc(Cl)c1 [CCCP, carbonyl cyanide m-chlorophenyl hydrazone]",effect of CCCP on metabolite-induced gentamicin-Texas red uptake,"[1]; 20 μM CCCP, 10 μg/mL Gent-TR, 30 min on carbon source",suppressed the metabolite-induced uptake of aminoglycoside
same,effect of CCCP on metabolite potentiation of gentamicin,"E. coli persisters; 20 μM CCCP pre-incubation, 10 μg/mL gentamicin plus carbon sources",abolish aminoglycoside potentiation by all of the carbon sources; also recorded: abolishes metabolite-enabled potentiation
CC1(C)S[C@@H]2[C@H](NC(=O)[C@H](N)c3ccccc3)C(=O)N2[C@H]1C(=O)O [ampicillin],killing of E. coli persisters by antibiotic without metabolite,E. coli persisters,"none of the bactericidal antibiotics used in this study (ofloxacin, ampicillin, and gentamicin) caused killing of cells; also recorded: neither the β-lactam ampicillin nor the quinolone ofloxacin showed appreciable killing"
same,killing of E. coli persisters by antibiotic in the presence of mannitol,E. coli persisters,neither the β-lactam ampicillin nor the quinolone ofloxacin showed appreciable killing
O=C[C@@H](O)[C@H](O)[C@H](O)CO [arabinose],potentiation of gentamicin against E. coli persisters by metabolite,E. coli persisters,low potentiation
O=C(CO)[C@@H](O)[C@H](O)[C@H](O)CO [fructose],reduction of persister viability (killing by gentamicin induced by metabolite),E. coli persisters,three orders of magnitude
same,potentiation of gentamicin against ΔndhΔnuoI strain persisters,E. coli persisters,not potentiated
same,PMF dependence of fructose potentiation in S. aureus,"S. aureus persisters; gentamicin and fructose, with or without CCCP, 4 h",requires PMF generation; also recorded: PMF-dependent killing
O=C(O)[C@H](O)[C@@H](O)[C@H](O)[C@H](O)CO [gluconate],potentiation of gentamicin against E. coli persisters by metabolite,E. coli persisters,low potentiation
O=C(O)CO [glycolate],uptake of Texas Red probe,"[1]; 30 mM glycolate, stationary phase E. coli",affects the uptake of Texas Red probe
OC[C@@H](O)[C@@H](O)[C@H](O)[C@H](O)CO [mannitol],reduction of persister viability (killing by gentamicin induced by metabolite),E. coli persisters,three orders of magnitude
same,potentiation of gentamicin against ΔndhΔnuoI strain persisters,E. coli persisters,not potentiated
same,potentiation of gentamicin against S. aureus persisters by metabolite,S. aureus persisters,little potentiation
O=C[C@H](O)[C@H](O)[C@H](O)CO [ribose],potentiation of gentamicin against E. coli persisters by metabolite,E. coli persisters,low potentiation
[H]/N=C(/N)N[C@H]1[C@H](O)[C@@H](O)[C@H](O[C@@H]2O[C@@H](C)[C@](O)(C=O)[C@H]2O[C@@H]2O[C@@H](CO)[C@H](O)[C@@H](O)[C@@H]2NC)[C@@H](N/C(N)=N\[H])[C@@H]1O [streptomycin],killing of E. coli persisters by antibiotic without metabolite,E. coli persisters,no appreciable killing
same,aminoglycoside activity against E. coli persisters with upper-glycolytic metabolites,"E. coli persisters; plus glucose, mannitol or fructose, 30 μg/mL kanamycin, 50 μg/mL streptomycin",greatly enabled
gentamicin,killing of E. coli persisters by antibiotic without metabolite,E. coli persisters,"none of the bactericidal antibiotics used in this study (ofloxacin, ampicillin, and gentamicin) caused killing of cells; also recorded: No killing"
same,killing of E. coli persisters by antibiotic in the presence of mannitol,E. coli persisters,rapidly eliminated
same,reduction of viability of catheter biofilms,[2],no effect
